# Test results reported in patent US6841519B1, “Isoxazoline derivatives and herbicides containing the same as the active ingredient” (Kumiai Chemical Industry Co., Ltd., priority 1999, dated 2005).
# Key:
# Assay type in all cases: in vivo
# [1] = test system: Echinochloa oryzicola Vasing. (Eo); test: Test for herbicidal effect by paddy field soil treatment (Test Example 1); conditions: application amount (active ingredient) 100 g/10 a, examined at the 21st day from the treatment, index per Table 40
# Method in brief: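 Eo seeds sown in puddled paddy soil under 3 cm water; next day a water-diluted wettable powder was dropped onto the water surface at 100 g active ingredient per 10 ares. Herbicidal effect scored on a standard scale 21 days after treatment, greenhouse-grown.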
# [2] = test system: rice (Or); test: Test for crop selectivity by paddy field soil treatment (Test Example 4), phytotoxicity to rice; conditions: transplanted two-leaf stage rice, 100 g/10 a active ingredient, 21st day
# Method: (§1) [table] <Test Example 4> Test For Crop Selectivity By Paddy Field Soil Treatment A paddy field soil was filled in a plastic pot of 100 cm^2 and subjected to puddling. Seeds of Echinochloa oryzicola Vasing. (Eo) were sowed; two-leaf stage seedlings of rice (Or) were transplanted in a depth of 2 cm; and water was filled in a depth of 3 cm. Next day, wettable powders produced in accordance with the Formulation 1 were diluted with water and dropped on the water surface. The application amount of each wettable powder was 100 g per 10 ares in terms of the active ingredient. Then, breeding was made in a greenhouse. At the 21st day from the treatment, the phytotoxicity and herbicidal effect of each wettable powder were examined in accordance with the standard shown in Table 40.
# [3] = test system: Echinochloa oryzicola Vasing. (Eo); test: Test for crop selectivity by paddy field soil treatment (Test Example 4), herbicidal effect on Eo; conditions: 100 g/10 a active ingredient, 21st day
# Method: as §1
# [4] = test system: Setaria viridis (L.) Beauv. (Se); test: Test for herbicidal effect by upland field soil treatment (Test Example 2), Se
# Method in brief: (§2)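 Echinochloa crus-galli and Setaria viridis were sown in upland field soil and covered, then the soil surface was sprayed with water-diluted wettable powder at 100 g active ingredient per 10 ares (100 liters per 10 ares). Plants were grown in a greenhouse and scored on a standard scale on day 21.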
# [5] = test system: Echinochloa crus-galli (L.) Beauv. var. crusgall (Ec); test: Test for herbicidal effect by upland field soil treatment (Test Example 2), Ec
# Method in brief: as §2
# [6] = application amount (active ingredient) 100 g/10 a, examined at the 21st day from the treatment, index per Table 40
# [7] = 100 g/10 a active ingredient, examined at 21st day
Structure (SMILES),Herbicidal effect to Eo [1],Phytotoxicity to Or [2],Herbicidal effect to Eo [3],"Herbicidal effect to Se [4, 6]","Herbicidal effect to Ec [5, 6]","Herbicidal effect to Se [4, 7]","Herbicidal effect to Ec [5, 7]"
CCC1(C)CC(S(=O)(=O)Cc2cccc(F)c2)=NO1 (stereo not shown) [Compound 1-190],5 (A herbicidal effect or phytotoxicity of 90% or more),1 (A herbicidal effect or phytotoxicity of 10% to less than 30%),5 (A herbicidal effect or phytotoxicity of 90% or more),5 (A herbicidal effect or phytotoxicity of 90% or more),5 (A herbicidal effect or phytotoxicity of 90% or more),–,–
CCC1(C)CC(SCc2c(F)cccc2F)=NO1 (stereo not shown) [Compound 1-198],5 (A herbicidal effect or phytotoxicity of 90% or more),1 (A herbicidal effect or phytotoxicity of 10% to less than 30%),5 (A herbicidal effect or phytotoxicity of 90% or more),5 (A herbicidal effect or phytotoxicity of 90% or more),4 (A herbicidal effect or phytotoxicity of 70% to less than 90%),–,–
CCC1(C)CC(S(=O)(=O)Cc2ccccc2OC)=NO1 (stereo not shown) [Compound 1-228],5 (A herbicidal effect or phytotoxicity of 90% or more),1 (A herbicidal effect or phytotoxicity of 10% to less than 30%),5 (A herbicidal effect or phytotoxicity of 90% or more),5 (A herbicidal effect or phytotoxicity of 90% or more),5 (A herbicidal effect or phytotoxicity of 90% or more),–,–
CCC1(C)CC(S(=O)(=O)Cc2cccc(C#N)c2)=NO1 (stereo not shown) [Compound 1-328],5 (A herbicidal effect or phytotoxicity of 90% or more),0 (A herbicidal effect or phytotoxicity of 0% to less than 10%),5 (A herbicidal effect or phytotoxicity of 90% or more),4 (A herbicidal effect or phytotoxicity of 70% to less than 90%),4 (A herbicidal effect or phytotoxicity of 70% to less than 90%),–,–
CC1(CO)CC(S(=O)(=O)Cc2c(F)cccc2F)=NO1 (stereo not shown) [Compound 1-394],5 (A herbicidal effect or phytotoxicity of 90% or more),1 (A herbicidal effect or phytotoxicity of 10% to less than 30%),5 (A herbicidal effect or phytotoxicity of 90% or more),–,4 (A herbicidal effect or phytotoxicity of 70% to less than 90%),–,–
O=S(=O)(Cc1c(F)cccc1F)C1=NOC2CCCCCC12 (stereo not shown) [Compound 1-518],–,1 (A herbicidal effect or phytotoxicity of 10% to less than 30%),5 (A herbicidal effect or phytotoxicity of 90% or more),–,–,4 (A herbicidal effect or phytotoxicity of 70% to less than 90%),5 (A herbicidal effect or phytotoxicity of 90% or more)
O=S(=O)(Cc1c(F)cccc1F)C1=NOC2CCCCCCC12 (stereo not shown) [Compound 1-519],5 (A herbicidal effect or phytotoxicity of 90% or more),0 (A herbicidal effect or phytotoxicity of 0% to less than 10%),5 (A herbicidal effect or phytotoxicity of 90% or more),–,–,–,–
CC1(C)CC(S(=O)(=O)Cc2ccccc2N)=NO1 [Compound 1-552],4 (A herbicidal effect or phytotoxicity of 70% to less than 90%),1 (A herbicidal effect or phytotoxicity of 10% to less than 30%),4 (A herbicidal effect or phytotoxicity of 70% to less than 90%),–,–,–,–
COCCOc1ccccc1CS(=O)(=O)C1=NOC(C)(C)C1 [Compound 1-579],5 (A herbicidal effect or phytotoxicity of 90% or more),1 (A herbicidal effect or phytotoxicity of 10% to less than 30%),5 (A herbicidal effect or phytotoxicity of 90% or more),–,–,–,–
CCOCCOc1ccccc1CS(=O)(=O)C1=NOC(C)(C)C1 [Compound 1-580],5 (A herbicidal effect or phytotoxicity of 90% or more),1 (A herbicidal effect or phytotoxicity of 10% to less than 30%),5 (A herbicidal effect or phytotoxicity of 90% or more),–,–,–,5 (A herbicidal effect or phytotoxicity of 90% or more)
CC1(C)CC(S(=O)(=O)Cc2ccccc2OCc2ccccc2)=NO1 [Compound 1-588],5 (A herbicidal effect or phytotoxicity of 90% or more),1 (A herbicidal effect or phytotoxicity of 10% to less than 30%),5 (A herbicidal effect or phytotoxicity of 90% or more),–,–,–,–
CC(C)COC(=O)c1ccccc1CS(=O)(=O)C1=NOC(C)(C)C1 [Compound 1-598],5 (A herbicidal effect or phytotoxicity of 90% or more),1 (A herbicidal effect or phytotoxicity of 10% to less than 30%),5 (A herbicidal effect or phytotoxicity of 90% or more),–,–,–,–
CC1(C)CC(S(=O)(=O)Cc2ccccc2C(=O)OC2CCCC2)=NO1 [Compound 1-601],5 (A herbicidal effect or phytotoxicity of 90% or more),1 (A herbicidal effect or phytotoxicity of 10% to less than 30%),5 (A herbicidal effect or phytotoxicity of 90% or more),–,–,–,5 (A herbicidal effect or phytotoxicity of 90% or more)
CC1(C)CC(S(=O)(=O)Cc2ccccc2C(=O)OCc2ccccc2Cl)=NO1 [Compound 1-612],5 (A herbicidal effect or phytotoxicity of 90% or more),0 (A herbicidal effect or phytotoxicity of 0% to less than 10%),5 (A herbicidal effect or phytotoxicity of 90% or more),–,–,–,–
CC1(C)CC(S(=O)(=O)Cc2ccccc2C(=O)OCc2cccc(Cl)c2)=NO1 [Compound 1-613],5 (A herbicidal effect or phytotoxicity of 90% or more),0 (A herbicidal effect or phytotoxicity of 0% to less than 10%),5 (A herbicidal effect or phytotoxicity of 90% or more),–,–,–,–
CC1(C)CC(S(=O)(=O)Cc2ccccc2C(=O)OCc2ccc(Cl)cc2)=NO1 [Compound 1-614],5 (A herbicidal effect or phytotoxicity of 90% or more),0 (A herbicidal effect or phytotoxicity of 0% to less than 10%),5 (A herbicidal effect or phytotoxicity of 90% or more),–,–,–,–
CCCCOC(=O)c1cccc(Cl)c1CS(=O)(=O)C1=NOC(C)(C)C1 [Compound 1-622],5 (A herbicidal effect or phytotoxicity of 90% or more),1 (A herbicidal effect or phytotoxicity of 10% to less than 30%),5 (A herbicidal effect or phytotoxicity of 90% or more),–,–,–,5 (A herbicidal effect or phytotoxicity of 90% or more)
CCC(C)OC(=O)c1cccc(Cl)c1CS(=O)(=O)C1=NOC(C)(C)C1 (stereo not shown) [Compound 1-623],5 (A herbicidal effect or phytotoxicity of 90% or more),1 (A herbicidal effect or phytotoxicity of 10% to less than 30%),5 (A herbicidal effect or phytotoxicity of 90% or more),–,–,–,–
CC(C)COC(=O)c1cccc(Cl)c1CS(=O)(=O)C1=NOC(C)(C)C1 [Compound 1-624],5 (A herbicidal effect or phytotoxicity of 90% or more),1 (A herbicidal effect or phytotoxicity of 10% to less than 30%),5 (A herbicidal effect or phytotoxicity of 90% or more),–,–,–,–
CC1(C)CC(S(=O)(=O)Cc2c(Cl)cccc2C(=O)OCc2ccccc2)=NO1 [Compound 1-625],5 (A herbicidal effect or phytotoxicity of 90% or more),1 (A herbicidal effect or phytotoxicity of 10% to less than 30%),5 (A herbicidal effect or phytotoxicity of 90% or more),–,–,–,–
CC1(C)CC(S(=O)(=O)Cc2c(Cl)cccc2C(=O)OCc2ccccc2Cl)=NO1 [Compound 1-626],5 (A herbicidal effect or phytotoxicity of 90% or more),0 (A herbicidal effect or phytotoxicity of 0% to less than 10%),5 (A herbicidal effect or phytotoxicity of 90% or more),–,–,–,–
CC1(C)CC(S(=O)(=O)Cc2c(Cl)cccc2C(=O)OCc2cccc(Cl)c2)=NO1 [Compound 1-627],5 (A herbicidal effect or phytotoxicity of 90% or more),1 (A herbicidal effect or phytotoxicity of 10% to less than 30%),5 (A herbicidal effect or phytotoxicity of 90% or more),–,–,–,–
CC1(C)CC(S(=O)(=O)Cc2c(Cl)cccc2C(=O)OCc2ccc(Cl)cc2)=NO1 [Compound 1-628],5 (A herbicidal effect or phytotoxicity of 90% or more),0 (A herbicidal effect or phytotoxicity of 0% to less than 10%),5 (A herbicidal effect or phytotoxicity of 90% or more),–,–,–,–
CCS(=O)(=O)C1=NOC(C)(C)C1 [Compound 2-2],5 (A herbicidal effect or phytotoxicity of 90% or more),0 (A herbicidal effect or phytotoxicity of 0% to less than 10%),5 (A herbicidal effect or phytotoxicity of 90% or more),–,–,–,–
